From patent US9463188B2, “Osteopontin production inhibitor containing dictyopyrone derivative or dihydrodictyopyrone derivative as active ingredient” (TOHOKU UNIVERSITY, priority 2013, dated 2016)

Experiments:
[1] = test system: human OPN promoter (pOPN1-luc) in A549/OPNluc cells; experiment: Luciferase assay: luciferase expression under control of OPN promoter; type: cell-based
Text: A reporter vector pOPN1-luc obtained by inserting a human OPN promoter sequence (−765 to 23) into the multiple cloning site of pGL-3 basic vector (Promega) expresses luciferase when transfected into animal cells. This pOPN1-luc was transfected into a human non-small cell lung cancer-derived cell line A549 together with pPUR (Clontech) that expresses a puromycin resistance gene (puromycin-N-acetyl-transferase gene), and cells that could grow in a puromycin-supplemented medium and expressed luciferase were selected. The selected cells were named A549/OPNluc cells and used for observation of luciferase expression inhibitory effect under control of OPN promoter, as described later.
A test compound was added to a culture liquid containing A549/OPNluc cells to observe its influence on the amount of luciferase expressed in the cells. Here, it can be considered that when the test compound has cytotoxity or cell growth-suppressing effect, the total expression level of luciferase is reduced due to a reduction in the number of living cells that depends on the concentration of the test compound, and therefore the luciferase expression inhibitory effect of the test compound under control of OPN promoter cannot be properly evaluated. For this reason, WST assay for quantification of cell proliferation ability or cell viability by colorimetric measurement was first performed to determine IC50 (concentration for 50% inhibition of cell growth) of the test compound for cell growth. Then, luciferase activity measurement was performed to determine EC50 (concentration for 50% inhibition of luciferase expression) of the test compound for luciferase expression under control of OPN promoter.
The same steps as in the above-described WST assay were performed in which only DMSO (control) or the diluted test compound (sample) solution was added in an amount of 0.5 μL to each well containing the cell suspension to achieve 200-fold dilution, and the solution in each well was mixed with a vortex mixer, and the 96-well plate was incubated in a CO2 incubator (at 37° C. and 5% CO2) for 48±4 hours.
A luciferase reagent was prepared by dissolving Luciferase Assay Substrate (hereinafter, referred to as “LAS”) supplied in Luciferase Assay Systems (Promega: Cat# E1500) with Luciferase Assay Buffer (LAB). 5× Cell Culture Lysis Reagent (hereinafter, referred to as “CCLR”) was diluted with water 5-fold to prepare 1×CCLR.
After the incubation for 48±4 hours, the medium in each well was completely removed, and 50 μL of 1×CCLR was dispensed into each well. The 96-well plate was allowed to stand at room temperature for 30 minutes, and then 1×CCLR in each well was used as an assay sample. The luciferase reagent of 100 μL was placed in a tube for chemiluminescence measurement, and 20 μL of the assay sample was added to the tube and mixed with the luciferase reagent to measure chemiluminescence (Relative Luminescence Intensity: RLU) using Tuner Design Luminometer 20/20 (Promega).
The RLU values of the control wells and the RLU values of the sample wells at each concentration were input into an Excel file, and the percentages of RLU values of the sample wells at each concentration with respect to the average of RLU values of the control wells were determined. From these values, a fitted curve was determined by the method of least squares to calculate EC50.

[2] = test system: human non-small cell lung cancer-derived cell line A549; experiment: Wound-Healing assay; type: cell-based; conditions: A549 cells, 2 days after injury
Text: In the next stage, a determination was made as to whether or not the physiological function of cells induced by OPN production was suppressed by the compound 3 as a test compound. The determination was made by performing cell Wound-Healing assay. This assay is commonly known as a method for evaluating cell migration capacity. When a wound is made in a cell monolayer by scratching some cells with a pipette tip or the like, the wound is closed by migration of cells around the wound. The influence of a test compound on such function was observed by adding the test compound to a cell culture liquid. […]
Based on the taken images, the areas of the wounds were determined using Image-Pro Plus 7.0J (MediaCybernetics). Then, a wound healing rate (%) was calculated based on the following calculation formula: Wound healing rate (%)=100−[area of wound after 2 days from injury/area of wound just after injury]×100. The average wound-healing rates (%) of the control group and the two compound 3-treated groups at different concentrations were calculated. Further, the percentage of the wound-healing rate of the compound-treated group with respect to the wound-healing rate of the control group was also calculated.
The statistical processing of calculated values of the wound-healing rate was performed using Excel statistics, Statcel 3. […]

EC50 value relative to respective IC50 value ([1]; EC50 luciferase assay vs IC50 WST assay): ½
EC50 ([1]; Homo sapiens, 48±4 hours, read-out: EC50 (concentration for 50% inhibition of luciferase expression under control of OPN promoter)): 15.9 µM
SMILES: CCCCCCCCCCCC(=O)[C@H]1C(=O)O[C@@H](C)C[C@@H]1C [Chemical formula 3]
wound-healing rate vs control group ([2]; 12.5 μmol/L): no difference
wound-healing rate vs control group ([2]; 25 μmol/L, significance level less than 1%): significantly suppressed
